Patent US11904051B2, “Shear stress sensitive liposomes” (Universität Basel, priority 2018, dated 2024)
Where “and” joins values, the source holds several entries; their conditions need not be identical. Equal values may be shown once.

Assays:
Type in all cases: physicochemical
[1] = Cryo-TEM of large unilamellar vesicles made of Rad-PC-Rad; conditions: 509 membrane cuts in cryo-TEM image
Experimental: The inventors measured the cryo-TEM images according to a previously described protocol (Ishikawa et al, J. Mol. Biol. 2007, 368 (5), 1249-1258). The cryo-TEM images recorded from large unilamellar vesicles (LUV) entirely made of Rad-PC-Rad, show a significant number of strongly facetted shapes below the membranes' main phase transition temperature of the membranes (Tm≈45° C.) (FIGS. 6 and 7). The ratio between facetted and spherical vesicles calculated from FIG. 6 is 21:4.
The interdigitation of the leaflets in a membrane can be directly measured from lateral cuts through the membrane in the cryo-TEM image (FIG. 6). To collect statistically relevant data, the inventors measured 509 membrane cuts (FIG. 6) with a mean membrane thickness of 3.20 nm±0.02 nm (N=509). With two times 0.7 nm for the headgroups, the hydrophobic layer is 1.8 nm thick. An all-trans alkyl chain of 16 C-atoms has a length of 2.05 nm. Thus, the alkyl chains would have a tilt angle of 64°, which is physically absurd. Therefore, a full bilayer interdigitation can be assumed.

[2] = SAXS measurement of liposomes under static conditions (glass capillary); conditions: static condition
Description: The investigated q-range between 0:02 nm^−1 and 1:65 nm^−1 corresponds to real-space distances d between 314 and 3 nm and, therefore, covers almost the entire nanometer range relevant for the characterization of the liposomes. The diagrams in FIG. 11 show the radially integrated scattering signal of DPPC-DSPE/PEG (top panel) and Pad-PC-Pad (bottom panel) liposomes acquired in suitable glass capillaries.
Suitable models are often utilized in the interpretation of the scattering signal of the system investigated. Herein, the scattering curves of DPPC/DSPE-PEG and Pad-PC-Pad were both fitted using a decoupling approach, which allowed to factorize the total form factor as product of a cross section term for long dimension and a cross section term for shorter dimension (Porod et al., IV. Acta Physica Austriaca 1948, 2, 255-292). To fit the form factor related to the overall shape of DPPC/DSPE-PEG, a thin spherical shell model was used (Breÿler et al., Journal of Applied Crystallography 2015, 48, 1587-1598), whereas the intensity peak related to the bilayer was fitted using a function for a bilayer with a Gaussian electron density profile (Pabst et al., Journal of Applied Crystallography 2003, 36, 1378-1388; Pabst et al., Physical Review E 2000, 62, 4000). The model utilized to fit the bilayer provided the bilayer thickness as the distance head-to-head dhh between the two phospholipid heads and the standard deviation over the phoshpolipid heads.
To fit the form factor related to the overall shape of Pad-PC-Pad a thin ellipsoidal shell model was used (Olson et al., Biochimica et Biophysica Acta (BBA)—Biomembranes 1979, 557, 9-23). An eccentricity E of 0.43 was found. As for DPPC/DSPE-PEG, the intensity peak related to the phospholipid head-to-head distance dhh was fitted using a function for a bilayer with a Gaussian electron density profile (Pabst et al., Journal of Applied Crystallography 2003, 36, 1378-1388; Pabst et al., Physical Review E 2000, 62, 4000) and a normal distribution over dhh. […]

[3] = Dynamic light scattering of liposomes (Delsa Nano C); conditions: 25 ° C.
Experimental: The lipid concentration of the two formulations was determined using the phosphate test (Stalder and Zumbuehl. CHIMIA International Journal for Chemistry 2013, 67, 819-821). Size and size distribution of the liposomes were quantified by means of dynamic light scattering (DLS) using a Delsa Nano C (Beckman Coulter, USA). DLS measurements were performed at a temperature of 25° C., using two laser diodes working at a wavelength of 658 nm. The scattering angle was set to 165 degrees. Cryo-TEM images of Pad-PC-Pad liposomal suspension were taken by mounting the liposomal suspension on glow-discharged holey carbon grids, quickly frozen by a Cryoplunge CP3 system (Gatan, USA), and transferred to a JEM2200FS transmission electron microscope (JEOL, Japan) using a Gatan626 cryo-holder. Cryo-TEM micrographs were recorded at an acceleration voltage of 200 kV at a magnification of 20,000, 4-8 μm under-focus, and a dose of 10 electrons=Å^2, using a F416 CMOS detector (TVIPS, Germany).

Row | Compound | mean membrane thickness [1] [nm] | head-to-head distance dhh ([2]; bilayer Gauss electron density profile model) | Radius of gyration Rg ([2]; glass capillary, flow rate 0) | eccentricity ε ([2]; thin ellipsoidal shell model) | mean diameter (DLS) [3] | polydispersity index (PDI) [3]
1 | CCCCCCCCCCCCCCCCC(=O)NCC(CNC(=O)CCCCCCCCCCCCCCCC)OP(=O)([O-])OCC[N+](C)(C)C [Rad-PC-Rad, 1,3-diheptadecanamidopropan-2-yl (2-(trimethylammonio)ethyl) phosphate] | 3.20 |  |  |  |  | 
2 | CCCCCCCCCCCCCCCC(=O)NCC(CNC(=O)CCCCCCCCCCCCCCC)OP(=O)([O-])OCC[N+](C)(C)C [Pad-PC-Pad, 1,3-palmitoylamido-1,3-deoxy-sn-glycero-2-phosphatidylcholine] |  | 3.3±0.8 nm and 3.3 nm | 60.3 nm and 60.3 ± 0.4 nm | 0.43 | 131.6+/−0.9 nm | 0.103+/−0.009
